Test [1] deals with MDA-MB-231 and HCT116 cell lines. The test is described as follows: Growth inhibition screen, 3 day exposure, relative DNA content. The note with it: 72 h; for inhibition at 1 µM: read-out: Drug Effect (avg) (1 μM); for inhibition at 10 µM: read-out: Drug Effect (avg) (10 μM).
The target in test [2] is T1, hRRM1 (Homo sapiens, UniProt P23921).
T1 sequence (P23921 1-792): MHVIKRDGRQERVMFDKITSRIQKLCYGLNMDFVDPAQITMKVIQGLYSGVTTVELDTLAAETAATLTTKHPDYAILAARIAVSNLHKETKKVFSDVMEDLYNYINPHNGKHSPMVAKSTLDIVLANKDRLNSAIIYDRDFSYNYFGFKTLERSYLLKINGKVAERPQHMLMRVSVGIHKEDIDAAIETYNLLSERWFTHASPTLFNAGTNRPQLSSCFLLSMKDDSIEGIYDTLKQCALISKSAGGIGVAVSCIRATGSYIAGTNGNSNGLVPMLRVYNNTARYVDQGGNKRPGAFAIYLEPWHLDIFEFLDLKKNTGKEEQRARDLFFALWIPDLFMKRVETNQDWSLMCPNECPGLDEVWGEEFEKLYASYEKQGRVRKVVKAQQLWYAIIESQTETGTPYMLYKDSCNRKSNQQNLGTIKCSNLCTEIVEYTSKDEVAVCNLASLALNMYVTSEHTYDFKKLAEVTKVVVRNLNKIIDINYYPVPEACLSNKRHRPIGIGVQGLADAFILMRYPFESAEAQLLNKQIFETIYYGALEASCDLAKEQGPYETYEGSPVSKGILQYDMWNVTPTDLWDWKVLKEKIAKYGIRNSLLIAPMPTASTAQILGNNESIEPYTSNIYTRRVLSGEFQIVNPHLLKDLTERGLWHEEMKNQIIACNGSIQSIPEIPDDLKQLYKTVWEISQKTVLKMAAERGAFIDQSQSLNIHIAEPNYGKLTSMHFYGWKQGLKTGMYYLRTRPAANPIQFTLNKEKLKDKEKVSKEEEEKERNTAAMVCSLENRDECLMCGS
Kind of test: Tryptophan fluorescence quenching of hRRM1 at fixed ligand concentration. To be noted: ligand 50 μM; hRRM1 0.1 mg/mL; excitation 295 nm.

Test [3] deals with T1, hRRM1. Kind of test: Gel filtration chromatography of hRRM1 oligomeric state. To be noted: 50 μM dATP alone. For orientation: SEC sorts molecules by how far they enter the pores of the column.

Residues, ends and D or L forms follow the SMILES beside them.

In the case of `OC(COc1ccc(OCC(O)CN2CCN(C3c4ccccc4-c4ccccc43)CC2)cc1)CN1CCN(C2c3ccccc3-c3ccccc32)CC1` (stereo not shown) [Compound 1], in test [1], the inhibition at 1 µM was -39.6% and the inhibition at 10 µM worked out at 88%.

For `CCOC(=O)C(NC(=O)CN[C@H]1CCCc2sccc21)C(=O)OCC` [Compound 2], in test [1], the inhibition at 1 µM was -19.9% and the inhibition at 10 µM turned out to be 53.1%. For `CCCCCCCCCCCCCCNC(=O)[C@@H](N)CCN` [Compound 3], in test [1], the inhibition at 1 µM was 7.2% and the inhibition at 10 µM was found to be 69%.

For `CCC(C)(C)c1ccc(OCCCCNC(=O)c2cc(Oc3ccc([N+](=O)[O-])cc3)c3ccccc3c2O)c(C(C)(C)CC)c1` [Compound 5], in test [1], the inhibition at 1 µM was found to be 3.8% and the inhibition at 10 µM was determined as 39.8%.

For the compound `CCCOc1ccc(C(=O)OCCN(CC)CC)cc1NS(=O)(=O)/C=C/c1ccccc1` [Compound 6], in test [1], the inhibition at 1 µM is -3.3% and the inhibition at 10 µM turned out to be 4.3%. As to `CC(NCCCCCO)c1cc(OCc2ccccc2)cc(OCc2ccccc2)c1` (stereo not shown) [Compound 8], in test [1], the inhibition at 1 µM is -7.6% and the inhibition at 10 µM worked out at 3.6%. In the same order, the values of `CCOC(=O)C[C@@H](CC(=O)NCCN[C@H](C)c1ccc(O)c(C(=O)OC)c1)OC(C)=O` [Compound 9] are 9.8% and 9.6%. The matching figures for `CCCCCCCCCCCCCCCC(=O)N[C@@H](CCCCN)C(=O)N[C@@H](CCCCN)C(=O)OC` [Compound 10]: -21.9% and -8.9%. Regarding `CC(C)C[C@H](NC(=O)[C@@H]1CCCN1C(=O)[C@H](Cc1cnc[nH]1)NC(=O)[C@@H](NC(=O)[C@H](Cc1ccc(O)cc1)NC(=O)[C@@H](NC(=O)[C@@H](N)CCCNC(=N)N)C(C)C)C(C)C)C(=O)O` [Compound 100207] (H-RVYVHPL-OH), in test [2], the “% Fluorescence quenching” value is “No tryptophan fluorescence quenching”.

For `CC(C)=CCC/C(C)=C/CNC(=O)CNC(c1ccc[nH]1)C(F)(F)F` (stereo not shown) [Compound 184612], the “% Fluorescence quenching” value in test [2] was “No tryptophan fluorescence quenching”.

As to `Nc1ncnc2c1ncn2[C@H]1C[C@H](O)[C@@H](COP(=O)(O)OP(=O)(O)OP(=O)(O)O)O1` [dATP, deoxyadenosine 5′-triphosphate], the “hexamer to dimer ratio based on integration of the peaks” value in test [3] is recorded as “approximately 3 fold”.

The values above are taken from paper PMC4751996 (Journal of medicinal chemistry, 2015).
